Source: patent US20050090522A1 (priority 2001, published 2005)
Where two headings read alike, the source gives them in different places.

Key:
HIV-1 = HIV-1 single-round infectious luciferase reporter virus (pseudotype) assay in HeLa CD4 CCR5 cells; assay type: cell-based
Summary of the method: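 Reporter pseudovirus produced in 293 cells infected HeLa cells expressing CD4/CCR5 at MOI ~0.01, with compound present at <10 μM final. Infection was quantified as luciferase luminescence after 72 h.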

[1] = Rat IV and PO pharmacokinetic studies; conditions: for clearance / AUC(0-t): male, Sprague-Dawley, in vivo; for clearance: iv, 1 mg/kg, CL; for clearance / CL, iv: iv dosing at 1 mg/kg; for AUC(0-t): po, 5 mg/kg
Description: Rat Pharmacokinetic Studies: For the IV and PO pharmacokinetic studies of compounds in rats, the compound was dissolved in PEG-400/ethanol (90/10) as a solution. Rat. Male Sprague-Dawley rats (300-350 g, Hilltop Lab Animals, Inc., Scottdale, Pa.) with cannulas implanted in the jugular vein were used. The rats were fasted overnight in the PO pharmacokinetic studies. Blood samples of 0.3 ml were collected from the jugular vein in EDTA-containing microtainer tubes (Becton Dickinson, Franklin Lakes, N. J.), and centrifuged to separate plasma. In the IV study, the test compound was delivered at 1 mg/kg as a bolus over 0.5 min (n=3). […] Quantitation of Compounds in Plasma. […] The resulting supernates were separated from the precipitated proteins by centrifugation for 10 minutes and transferred to autosampler vials. Samples were either prepared manually, or with the use of the Tomtec automated liquid handler. An aliquot of 5 μL was injected for analysis. The HPLC system consisted of two Shimadzu LC10AD pumps (Columbia, Md.), a Shimadzu SIL-HTC autosampler (Columbia, Md.), and a Hewlett Packard Series 1100 column compartment (Palo Alto, Calif.). The column was a YMC Pro C18 (2.0×50 mm, 3 μm particles, Waters Co., Milford, Mass.), maintained at 60° C. and a flow rate of 0.3 ml/min. The mobile phase consisted of 10 mM ammonium formate and 0.1% formic acid in water (A) and 100% 10 mM ammonium formate and 0.1% formic acid in methanol (B). […] The mobile phase was then returned to initial conditions and the column re-equilibrated for 1 minute. Total analysis time was 4 minutes. The HPLC was interfaced to a Micromass Quattro LC. Ultra high purity nitrogen was used as the nebulizing and desolvation gas at flow rates of 100 L/hr for nebulization and 1100 L/hr for desolvation. The desolvation temperature was 300° C. and the source temperature was 150° C. Data acquisition utilized selected reaction monitoring (SRM). Ions representing the (M+H)^+ species for the compound and the internal standard were selected in MS 1 and collisionally dissociated with argon at a pressure of 2×10^−3 torr to form specific product ions which were subsequently monitored by MS2.
For accuracy, the determined measure of viral inhibition is an EC50; but the minimum plasma concentrations which should be maintained in a patient is generally believed to be at least four or five fold higher. […] Lower is better. • 4) Estimating potential exposure in man by measuring parameters such as AUC and rate of clearance by oral and iv dosing in rats. High exposure and low clearance was desired.
The rat model is an initial model used to assess potential for exposure in man.

HeLa cells = assay: Cytotoxicity assay in HeLa cells (MTT dye reduction, CC50); conditions: cytotoxicity; Yes = CC50 above 100 uM, No = not
Summary of the method: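 HeLa cells expressing CD4 and CCR5, grown in DMEM with 10% FBS, were used for cytotoxicity testing by MTT dye reduction; the text gives no further cytotoxicity conditions. The parallel antiviral assay exposed the same cells to compound at final <10 μM for 72 h.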

[2] = Metabolic stability in pooled human liver microsomes (HLM); conditions: pooled human liver microsomes, 3 μM drug; Low/Intermediate/High
Summary of the method: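 Pooled human liver microsomes (0.9 mg/ml final) in 0.1 M potassium phosphate pH 7.4 with 0.033 mM MgCl2 and an NADPH-regenerating system. Compound pre-incubated 2 min, reaction started with cofactors, run 10 min at 37° C, quenched in acetonitrile and analysed by LC/MS.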

[3] = Human immunodeficiency virus 1, HeLa-CD4/CCR5, read-out: EC50 Group from TABLE 1, HeLa CD4 CCR5 cells, single-round infectious luciferase reporter virus
[4] = Human immunodeficiency virus 1, HeLa-CD4/CCR5, read-out: EC50 category, HIV-1 single-round reporter virus assay, category 1/2/3 per Table A1 key
[5] = AUC 24 h, oral dosing at 5 mg/kg
[6] = Human immunodeficiency virus 1, HeLa-CD4/CCR5, read-out: EC50 Group from Table 1, Table 2-1, HeLa CD4 CCR5 cells, single-round luciferase reporter virus

| Compound | EC50 (HIV-1; [3]) | EC50 (HIV-1; [4]) | clearance [1] | AUC(0-t) [1, 5] | CC50 > 100 uM (HeLa cells) | HLM predicted human clearance class [2] | EC50 (HIV-1; [6]) | AUC(0-t) [1] | CL, iv [1] | AUC 24 h ([1]; oral dosing at 5 mg/kg) |
| --- | --- | --- | --- | --- | --- | --- | --- | --- | --- | --- |
| COc1cnc(-c2ncon2)c2[nH]cc(C(=O)C(=O)N3CCN(C(=O)c4ccccc4)CC3)c12 [Example 226] | < 1000 nM | < 0.2 nM | 24.5 ± 3 mL/min/kg | 500 ± 130 ng·h/mL | Yes | Low (0-0.100) |  |  |  |  |
| COc1cnc(-n2ccnn2)c2[nH]cc(C(=O)C(=O)N3CCN(C(=O)c4ccccc4)CC3)c12 [Example 188, 1-benzoyl-4-[(4-methoxy-7-(1,2,3-triazol-1-yl)-6-azaindol-3-yl)-oxoacetyl]piperazine] | < 1000 nM | < 0.2 nM | 2.4 ± 0.08 mL/min/kg | 20000 ± 4600 ng·h/mL | Yes | Low (0-0.100) |  |  |  |  |
| Cc1ncn(-c2ncc(F)c3c(C(=O)C(=O)N4CCN(C(=O)c5ccccc5)CC4)c[nH]c23)n1 [Example 306] | < 1000 nM | < 0.2 nM | 0.39 ± 0.07 mL/min/kg | 160000 ± 11000 ng·h/mL |  | Low (0-0.100) |  |  |  |  |
| COc1cnc(-n2cncn2)c2[nH]cc(C(=O)C(=O)N3CCN(C(=O)c4ccccc4)CC3)c12 [Example 187, 1-benzoyl-4-[(4-methoxy-7-(1,2,4-triazol-1-yl)-6-azaindol-3-yl)-oxoacetyl]piperazine] | < 1000 nM | < 0.2 nM | 2.4 ± 0.5 mL/min/kg | 22400 ± 7200 ng·h/mL | Yes | Low (0-0.100) |  |  |  |  |
| COc1cnc(-n2cc(C)nn2)c2[nH]cc(C(=O)C(=O)N3CCN(C(=O)c4ccccc4)[C@H](C)C3)c12 [Example 326] |  | < 0.2 nM | 8.3 mL/min/kg | 9800 ± 2900 ng·h/mL | Yes | Low (0-0.100) | < 1000 nM |  |  |  |
| COc1cnc(-n2cnc(C)n2)c2[nH]cc(C(=O)C(=O)N3CCN(C(=O)c4ccccc4)CC3)c12 [Example 316] | < 1000 nM | < 0.2 nM |  |  |  |  |  | 52000 ± 12000 ng·h/mL |  |  |
| Cc1ccn(-c2ncc(F)c3c(C(=O)C(=O)N4CCN(C(=O)c5ccccc5)CC4)c[nH]c23)n1 [Example 310] | < 1000 nM | < 0.2 nM | 16.5 ± 3.3 mL/min/kg | 2100 ± 400 ng·h/mL | Yes | Low (0-0.100) |  |  |  |  |
| COc1cnc(-n2cnc(C)n2)c2[nH]cc(C(=O)C(=O)N3CCN(C(=O)c4ccccc4)[C@H](C)C3)c12 [Example 317] |  | < 0.2 nM | 1.9 ± 0.26 mL/min/kg | 43000 ± 12000 ng·h/mL | Yes | Low (0-0.100) | < 1000 nM |  |  |  |
| COc1ncc(-c2nccc3c(C(=O)C(=O)N4CCN(C(=O)c5ccccc5)C[C@H]4C)c[nH]c23)c(OC)n1 [Example 12, 1-benzoyl-3-®-methyl-4-[(7-(2,4-dimethoxy-pyrimidin-5-yl)-6-azaindol-3-yl)-oxoacetyl]piperazine] |  |  |  |  |  |  |  |  | 11.9 ± 1.8 mL/min/kg | 4700 ± 1100 ng·h/mL |
| O=C(C(=O)N1CCN(C(=O)c2ccccc2)CC1)c1c[nH]c2c(-c3cnco3)ncc(F)c12 [Example 145] | < 1000 nM | < 0.2 nM |  | 12000 ± 3800 ng·h/mL |  |  |  |  | 1.4 ± 0.29 mL/min/kg |  |
| Cc1ccc(-c2nccc3c(C(=O)C(=O)N4CCN(C(=O)c5ccccc5)C[C@H]4C)c[nH]c23)cc1N [Example 3, 1-benzoyl-3-®-methyl-4-[(7-(3-amino-4-methylphenyl)-6-azaindol-3-yl)-oxoacetyl] piperazine] |  |  |  |  |  |  |  |  | 1.3 ± 4.0 mL/min/kg | 6300 ± 2700 ng·h/mL |
| O=C(C(=O)N1CCN(C(=O)c2ccccc2)CC1)c1c[nH]c2c(-n3ccnn3)ncc(F)c12 [Example 216] | < 1000 nM | < 0.2 nM |  | 32000 ± 12000 ng·h/mL |  | Low (0-0.100) |  |  |  |  |
